In patent US10751378B2, “Pharmaceutical composition comprising Pistacia weinmannifolia extract, fraction of same or compound separated from same for preventing or treating chronic obstructive pulmonary disease (COPD)” (Korea Research Institute of Bioscience and Biotechnology, priority 2014, dated 2020):

What was measured:
H292 cells = experiment: Cytotoxicity test: H292 cell viability (CCK-8); assay type: cell-based, human; details: 24 hours, negative control (0.2% DMSO) = 100%
Description: To confirm the cytotoxicity of a Pistacia weinmannifolia extract, a fraction thereof, and a compound isolated therefrom, which were prepared and extracted in Example 1, experiments were performed by applying the method described in the existing references (Ishiyama et al., Talanta, 44, pp. 1299-1305, 1997; Tominaga et al., Anal. Commun., 36, pp. 47-50, 1999).
H292 (CRL-1848) was purchased from the American Type Culture Collection (ATCC). The H292 cells were cultured in RPMI medium (SH30027.01, RPMI 1640, Gibco) containing 10% fetal bovine serum and antibiotics, and cultured in the condition of humidified 5% CO2 atmosphere at 37° C. TNF-α was purchase from a company (300-01A, Peprotech, USA) and used.
The cells in a medium (GM) were placed in a 96-well plate at a density of (1×10^3 cells/well). After 24 hours, the cells were cultured along with a sample for one day. The cell viability rate was read via trivalues according to the manufacturer's manual using the Cell Counting Kit-8 (CK04-01, Dojindo Molecular Technologies, ML). The absorbance was measured using the VERSAmax microplate reader (SMP500-14915, Molecular Devices, USA) and the measured absorbance was converted into a cell number via a standard curve.
H292 cells, human mucosa cells of lung cancer, were suspended in RPMI medium (Gibco) containing 10% fetal bovine serum in a concentration of 5×10^4 cells/mL, inoculated to a 96 well-plate in an amount of 100 μL per each well, and allowed to be attached thereto for 12 hours. Six active fractions of Pistacia and 3 single compounds (PW11, PW12, and PW13) were treated according to concentrations, and cultured for 24 hours. As explained in the cell counting CCK-8 kit (Dojindo Molecular Technologies, ML), the CCK-8 solution (10 μL) was mixed with the medium (90 μL). The mixture (100 μL) was added to each well, reacted for the minimum 30 minutes to the maximum 4 hours, and the absorbance was measured at 570 nm. The cell viability was calculated according to Equation 1 above with reference to the negative control, which was treated with DMSO in a concentration of 0.2%, set at 100%. Cell Viability (%)=[value at OD 570 nm after treatment with an extract/value at OD 570 nm (negative control)]×100 [Equation 1]

MUC5AC = experiment: Inhibition of MUC5AC protein production induced by TNF-α (immunoassay of supernatant); assay type: cell-based; details: TNF-α 20 ng/mL; for inhibition at 0.125 µM / inhibition at 0.25 µM / inhibition at 0.5 µM / inhibition at 1 µM: read-out: Inhibition Rate (%) of MUC5AC production
Source text: To analyze the effects of the Pistacia weinmannifolia extract, a fraction thereof, and a compound isolated therefrom, prepared and extracted in Example 1, on the prevention and treatment of inflammatory diseases such as COPD, the inhibitory effect of the Pistacia weinmannifolia extract, a fraction thereof, and a compound isolated therefrom against the secretion of a related protein, MUC5AC. In this regard, to confirm the inhibitory effect of the samples in Examples on the production of MUC5AC protein, experiments were performed using the method described in the reference (Sikder, M A. et al., Phytotherapy research: PTR. 28, 62-8, 2014).
The supernatant, which was recovered for the immunoassay of the produced MUC5AC, was aliquoted into a 96 well-plate in an amount of 50 μL and dried in a homeostat set at 50° C. The resultant was washed with PBS containing 1% BSA, reacted with MUC5AC antibody (ab3649, abcam) at room temperature for one hour, and aliquoted with the secondary antibody and reacted for one hour. The resultant was rewashed, reacted with 3,3′,5,5′-tetramethylbenzidine peroxide solution (54827-17-7, Sigma-Aldrich) for 20 minutes, and the reaction was stopped with a sulfuric acid solution and the coloration was measured at 450 nm using a microplate reader (VERSAmax microplate reader, SMP500-14915, Molecular Devices, USA).

SMILES | H292 Cell Viability Rate (%, Mean ± SD) (H292 cells; 0.125 μM) [%] | H292 Cell Viability Rate (%, Mean ± SD) (H292 cells; 0.25 μM) [%] | H292 Cell Viability Rate (%, Mean ± SD) (H292 cells; 0.5 μM) [%] | H292 Cell Viability Rate (%, Mean ± SD) (H292 cells; 1 μM) [%] | Amount of MUC5AC Secretion (Relative % to TNF-α Treated Group) (MUC5AC; Conc. 0.125 μM) [%] | inhibition at 0.125 µM (MUC5AC; Conc. 0.125 μM) [%] | Amount of MUC5AC Secretion (Relative % to TNF-α Treated Group) (MUC5AC; Conc. 0.25 μM) [%] | inhibition at 0.25 µM (MUC5AC; Conc. 0.25 μM) [%] | Amount of MUC5AC Secretion (Relative % to TNF-α Treated Group) (MUC5AC; Conc. 0.5 μM) [%] | inhibition at 0.5 µM (MUC5AC; Conc. 0.5 μM) [%] | Amount of MUC5AC Secretion (Relative % to TNF-α Treated Group) (MUC5AC; Conc. 1 μM) [%] | inhibition at 1 µM (MUC5AC; Conc. 1 μM) [%]
O=C(/C=C/c1ccc(Oc2ccc(/C=C/C(=O)c3ccc(O)cc3O)cc2O)cc1)c1ccc(O)cc1O [Compound PW12] | 95.80 ± 2.90 | 96.47 ± 3.21 | 104.50 ± 1.32 | 115.88 ± 0.50 | 75.77 ± 7.66 | 24.2 | 74.23 ± 12.98 | 25.8 | 69.50 ± 5.37 | 30.5 | 69.74 ± 8.56 | 30.3
O=C(/C=C/c1ccc(Oc2ccc([C@@H]3[C@@H](C(=O)c4ccc(O)cc4O)[C@H](C(=O)c4ccc(O)cc4O)[C@H]3c3ccc(O)cc3)cc2O)cc1)c1ccc(O)cc1O [Compound PW13, di-(2,4-dihydroxybenzoyl)-(3,4-dihydroxyphenyl)-(4-hydroxyphenyl)-cyclobutane-3-O-4′-bichalcone] | 104.80 ± 2.34 | 103.53 ± 3.07 | 126.28 ± 7.75 | 71.92 ± 5.47 | 83.92 ± 9.77 | 16.1 | 82.39 ± 3.10 | 17.6 | 77.30 ± 2.33 | 22.7 | 73.76 ± 2.68 | 26.2
